Laboratory results as given in patent US20130172318A1, “ANTI-INFLAMMATORY AGENTS” (priority 2010, published 2013).

System: MCP-1 induced migration of THP-1 cells
Assay: Inhibition of MCP-1 induced leukocyte migration (transwell, THP-1 cells)
Assay type: cell-based
Conditions: Homo sapiens, MCP-1 25 ng/ml, 2 hours 37° C., read-out: ED50 (concentration required to reduce the MCP-1-induced migration by 50%)
Protocol: In principle, this assay consists of two chambers separated by a porous membrane. The chemoattractant is placed in the lower compartment and the cells are placed in the upper compartment. After incubation for a period at 37° C. the cells move towards the chemoattractant, and the number of cells in the lower compartment is proportional to the chemoattractant activity (relative to a series of controls).
The THP-1 cell line (European Cell culture Collection) were used as the leukocyte cell population.
The following procedure is used for testing the invention compounds for MCP-1 induced leukocyte migration:
First, the cell suspension to be placed in the upper compartment is prepared. The THP-1 cells are pelleted by centrifugation (770×g; 4 mins) and washed with Geys Balanced Salt Solution with 1 mg/ml BSA (GBSS+BSA). This wash is then repeated, and the cells repelleted before being resuspended in a small volume of GBSS+BSA for counting, for example using a standard haemocytometer.
The volume of GBSS+BSA is then adjusted depending on the number of cells present so that the cells are at final density of 4.45×10^6 cells per ml of GBSS+BSA. This ensures that there are […] THP-1 cells in each 25 μl of the solution that will be placed in the upper chamber of the plate.
To test a single compound for its ability to inhibit MCP-1 induced migration, it is necessary to prepare two lots of cells. The suspension of THP-1 cells at 4.45×10^6 cells/ml is divided into two pots. To one pot the inhibitor under test is added at an appropriate final concentration, in an appropriate vehicle (for example at 1 μM in not more than 1% DMSO). To the second pot an equal volume of GBSS+BSA plus vehicle as appropriate (e.g. not more than 1% DMSO) is added to act as a control.
Next, the chemoattractant solution to be placed in the lower compartment is prepared. MCP-1 is diluted in GBSS+BSA to give a final concentration of 25 ng/ml. This is divided into two pots, as for the cell suspension. To one pot, the test compound is added to the same final concentration as was added to the cell suspension, while to the other pot an equal volume of GBSS+BSA plus vehicle as appropriate (e.g. not more than 1% DMSO) is added.
Note that the volume of liquid that needs to be added to make the addition of the text compound needs to be taken into account, when establishing the final concentration of MCP-1 in the solution for the lower compartment and the final concentration of cells in the upper compartment.
Once the chemoattractant solutions for the lower wells and cell solutions for the upper chambers have been prepared, the migration chamber should be assembled. Place 29 μl of the appropriate chemoattractant solution into the lower well of the chamber. Assays should be performed with at least triplicate determinations of each condition. Once all the lower chambers have been filled, apply the prous membrane to the chamber in accordance with the manufacturer's instructions. Finally, apply 25 μl of the appropriate cell solution to each upper chamber. A plastic lid is placed over the entire apparatus to prevent evaporation.
The assembled chamber is incubated at 37° C., 5% CO2, for 2 hours. A suspension of cells in GBSS+BSA is also incubated under identical conditions in a tube: these cells will be used to construct a standard curve for determining the number of cells that have migrated to the lower chamber under each condition.
At the end of the incubation, the liquid cell suspension is gently removed from the upper chamber, and 20 μl of ice-cold 20 mM EDTA in PBS is added to the upper chamber, and the apparatus is incubated at 4° C. for 15 mins. This procedure causes any cells adhering to the underside of the membrane to fall into the lower chamber.
After this incubation the filter is carefully flushed with GBSS+BSA to wash off the EDTA, and then the filter is removed. […]

| EC50 | Compound |
| --- | --- |
| ≤ 100 nM | O=C(NC1CCCNC1=O)c1ccccc1 (stereo not shown) [Reference Example 1, 3-(Benzoylamino)tetrahydropyridin-2-one] |
| ≤ 100 nM | O=C(NC1CCCCNC1=O)c1ccccc1 (stereo not shown) [Reference Example 2, 3-(Benzoylamino)azepan-2-one] |
| ≤ 100 nM | Cc1ccc(C(=O)NC2CCCNC2=O)cc1 (stereo not shown) [Reference Example 3, 3-(4′-Methylbenzoylamino)tetrahydropyridin-2-one] |
| ≤ 100 nM | Cc1ccc(C(=O)NC2CCCCNC2=O)cc1 (stereo not shown) [Reference Example 4, 3-(4′-Methylbenzoylamino)azepan-2-one] |
| ≤ 100 nM | O=C(NC1CCCNC1=O)c1ccc(Cl)cc1 (stereo not shown) [Reference Example 5, 3-(4′-Chlorobenzoylamino)tetrahydropyridin-2-one] |
| ≤ 100 nM | O=C(NC1CCCCNC1=O)c1ccc(Cl)cc1 (stereo not shown) [Reference Example 6, 3-(4′-Chlorobenzoylamino)azepan-2-one] |
| ≤ 100 nM | COc1ccc(C(=O)NC2CCCNC2=O)cc1 (stereo not shown) [Reference Example 7, 3-(4′-Methoxybenzoylamino)tetrahydropyridin-2-one] |
| ≤ 100 nM | COc1ccc(C(=O)NC2CCCCNC2=O)cc1 (stereo not shown) [Reference Example 8, 3-(4′-Methoxybenzoylamino)azepan-2-one] |
| ≤ 100 nM | O=C(NC1CCCNC1=O)c1ccc(F)cc1 (stereo not shown) [Reference Example 9, 3-(4′-Fluorobenzoylamino)tetrahydropyridin-2-one] |
| ≤ 100 nM | O=C(NC1CCCCNC1=O)c1ccc(F)cc1 (stereo not shown) [Reference Example 10, 3-(4′-Fluorobenzoylamino)azepan-2-one] |
| ≤ 100 nM | Cc1cc(C)cc(C(=O)NC2CCCNC2=O)c1 (stereo not shown) [Reference Example 13, 3-(3′,5′-Dimethylbenzoylamino)tetrahydropyridin-2-one] |
| ≤ 100 nM | Cc1cc(C)cc(C(=O)NC2CCCCNC2=O)c1 (stereo not shown) [Reference Example 14, 3-(3′,5′-Dimethylbenzoylamino)azepan-2-one] |

System: not given
Assay: not given
Conditions: not given

| melting point | Compound |
| --- | --- |
| 164 to 166 °C | O=C(N[C@H]1CCCNC1=O)c1cccc(F)c1 [Example 1, (S)-3-Fluoro-N-(2-oxopiperidin-3-yl)benzamide] |
| 166 to 168 °C | O=C(N[C@H]1CCCNC1=O)c1ccccc1F [Example 2, (S)-2-Fluoro-N-(2-oxopiperidin-3-yl)benzamide] |
| 212 to 214 °C | O=C(N[C@H]1CCCNC1=O)c1ccc(C(F)(F)F)cc1 [Example 4, (S)—N-(2-Oxopiperidin-3-yl)-4-(trifluoromethyl)benzamide] |
| 148 to 150 °C | O=C(N[C@H]1CCCNC1=O)c1cccc(C(F)(F)F)c1 [Example 5, (S)—N-(2-Oxopiperidin-3-yl)-3-(trifluoromethyl)benzamide] |
| 155 to 156 °C | O=C(N[C@H]1CCCNC1=O)c1ccccc1C(F)(F)F [Example 6, (S)—N-(2-Oxopiperidin-3-yl)-2-(trifluoromethyl)benzamide] |
| 160 to 162 °C | O=C(N[C@H]1CCCNC1=O)c1cccc(F)c1F [Example 7, (S)-2,3-difluoro-N-(2-oxopiperidin-3-yl)benzamide] |
| 140 to 141 °C | O=C(N[C@H]1CCCNC1=O)c1ccc(F)cc1F [Example 8, (S)-2,4-difluoro-N-(2-oxopiperidin-3-yl)benzamide] |
| 140 to 142 °C | O=C(N[C@H]1CCCNC1=O)c1cc(F)ccc1F [Example 9, (S)-2,5-difluoro-N-(2-oxopiperidin-3-yl)benzamide] |
| 190 to 194 °C | O=C(N[C@H]1CCCNC1=O)c1c(F)cccc1F [Example 10, (S)-2,6-difluoro-N-(2-oxopiperidin-3-yl)benzamide] |
| 202 to 204 °C | O=C(N[C@H]1CCCNC1=O)c1ccc(F)c(F)c1 [Example 11, (S)-3,4-difluoro-N-(2-oxopiperidin-3-yl)benzamide] |
| 198 to 199 °C | O=C(N[C@H]1CCCNC1=O)c1cc(F)cc(F)c1 [Example 12, (S)-3,5-difluoro-N-(2-oxopiperidin-3-yl)benzamide] |
| 218 to 219 °C | CCc1ccc(C(=O)N[C@H]2CCCCNC2=O)cc1 [Example 14, (S)-3-(4′-Ethylbenzoylamino)-azepan-2-one] |
| 112 to 113 °C | CCc1ccc(C(=O)N[C@H]2CCCNC2=O)cc1 [Example 15, (S)-3-(4′-Ethylbenzoylamino)-tetrahydropyridin-2-one] |
| 183 to 184 °C | CCCCc1ccc(C(=O)N[C@H]2CCCCNC2=O)cc1 [Example 16, (S)-3-(4′-Butylbenzoylamino)-azepan-2-one] |
| 117 to 118 °C | CCCCc1ccc(C(=O)N[C@H]2CCCNC2=O)cc1 [Example 17, (S)-3-(4′-Butylbenzoylamino)-tetrahydropyridin-2-one] |
| 116 to 117 °C | CCCCc1ccc(C(=O)N[C@@H]2CCCNC2=O)cc1 [Example 18, (R)-3-(4′-Butylbenzoylamino)-tetrahydropyridin-2-one] |
| 204 to 205 °C | CC(C)(C)c1ccc(C(=O)N[C@H]2CCCCNC2=O)cc1 [Example 19, (S)-3-(4′-tert-Butylbenzoylamino)-azepan-2-one] |
| 195 to 196 °C | CC(C)(C)c1ccc(C(=O)N[C@H]2CCCNC2=O)cc1 [Example 20, (S)-3-(4′-tert-Butylbenzoylamino)-tetrahydropyridin-2-one] |
| 193 to 194 °C | CC(C)(C)c1ccc(C(=O)N[C@@H]2CCCNC2=O)cc1 [Example 21, (R)-3-(4′-tert-Butylbenzoylamino)-tetrahydropyridin-2-one] |
| 167 to 168 °C | CCCCCCc1ccc(C(=O)N[C@H]2CCCCNC2=O)cc1 [Example 22, (S)-3-(4′-Hexylbenzoylamino)-azepan-2-one] |
| 118 to 119 °C | CCCCCCc1ccc(C(=O)N[C@H]2CCCNC2=O)cc1 [Example 23, (S)-3-(4′-Hexylbenzoylamino)-tetrahydropyridin-2-one] |
| 117 to 118 °C | CCCCCCc1ccc(C(=O)N[C@@H]2CCCNC2=O)cc1 [Example 24, (R)-3-(4′-Hexylbenzoylamino)-tetrahydropyridin-2-one] |
| 159 to 160 °C | CCCCCCCCc1ccc(C(=O)N[C@H]2CCCCNC2=O)cc1 [Example 25, (S)-3-(4′-Octylbenzoylamino)-azepan-2-one] |
| 122 to 123 °C | CCCCCCCCc1ccc(C(=O)N[C@H]2CCCNC2=O)cc1 [Example 26, (S)-3-(4′-Octylbenzoylamino)-tetrahydropyridin-2-one] |
| 122 to 123 °C | CCCCCCCCc1ccc(C(=O)N[C@@H]2CCCNC2=O)cc1 [Example 27, (R)-3-(4′-Octylbenzoylamino)-tetrahydropyridin-2-one] |

System: chemokine-induced migration
Assay: not given
Conditions: cited from earlier work

| Compound | BSCI potency/activity in words (comparative) |
| --- | --- |
| CCCCCCCCCC(C)(C)CC(=O)NC1CCCCNC1=O (stereo not shown) [3′3′-dimethyldodecanoyl-3-aminocaprolactam] | no more potent |
| CCCCCCCCCC=CC(=O)NC1CCCCNC1=O (stereo not shown) [dodec-2′,3′-enoyl-3-aminocaprolactam] | markedly lower potency |
| (S)-3-(undec-10-enoyl)-tetrahydropyridin-2-one | considerably reduced potency |

System: not given
Assay: not given
Conditions: after intravenous injection; cited from earlier work

| Compound | half-life period of clearance from blood plasma |
| --- | --- |
| c(DCys-DGln-DIle-DTrp-DLys-DGln-DLys-DPro-DAsp-DLeu-DCys)-NH2 [NR58-3.14.3] | less than 30 minutes |

Same assay, conditions: in vivo, po; cited from earlier work

| Compound | oral bioavailability |
| --- | --- |
| c(DCys-DGln-DIle-DTrp-DLys-DGln-DLys-DPro-DAsp-DLeu-DCys)-NH2 [NR58-3.14.3] | not orally bioavailable |

System: not given
Assay: not given
Conditions: 37° C.; cited from earlier work

| Compound | time completely stable in human serum |
| --- | --- |
| (S)-3-(undec-10-enoyl)-tetrahydropyridin-2-one | at least 7 days |
